IC50 data for 25 compounds are collected here from US8569344B2, “N-piperidinyl acetamide derivatives as calcium channel blockers” (Zalicus Pharmaceuticals Ltd., priority 2008, dated 2013).

Type in all cases: cell-based
In data set [1] the target is T1, human α1H T-type channels (Homo sapiens, UniProt O95180).
T1 construct: expressed in transfected cells; host or cells: HEK 293
The data set is described as follows: T-type calcium channel block, whole cell patch clamp in HEK cells (α1H). Particulars: HEK cells, patch clamp, mainly non-inactivated protocol; values above 10 μM shown as 10 μM; read-out: T-type Calcium Channel Block α1H IC50. Background: In patch-clamp work, channel activity is measured electrically.

Data set [2] concerns the target T2, human α1G T-type channels (Homo sapiens, UniProt O43497).
T2 construct: expressed in transfected cells; host or cells: HEK 293
The data set can be described thus: T-type calcium channel block, whole cell patch clamp in HEK cells (α1G). The note with it: HEK cells, patch clamp, mainly non-inactivated protocol; values above 10 μM shown as 10 μM, below 0.30 μM shown as 0.30 μM; read-out: T-type Calcium Channel Block α1G IC50.

The target in data set [3] is hERG K+ channel (Homo sapiens, UniProt Q12809). The data set can be described thus: hERG K+ Channel Block. In general terms: The hERG channel carries a current that helps repolarise heart muscle cells.
Chain of hERG K+ channel (Q12809 whole entry): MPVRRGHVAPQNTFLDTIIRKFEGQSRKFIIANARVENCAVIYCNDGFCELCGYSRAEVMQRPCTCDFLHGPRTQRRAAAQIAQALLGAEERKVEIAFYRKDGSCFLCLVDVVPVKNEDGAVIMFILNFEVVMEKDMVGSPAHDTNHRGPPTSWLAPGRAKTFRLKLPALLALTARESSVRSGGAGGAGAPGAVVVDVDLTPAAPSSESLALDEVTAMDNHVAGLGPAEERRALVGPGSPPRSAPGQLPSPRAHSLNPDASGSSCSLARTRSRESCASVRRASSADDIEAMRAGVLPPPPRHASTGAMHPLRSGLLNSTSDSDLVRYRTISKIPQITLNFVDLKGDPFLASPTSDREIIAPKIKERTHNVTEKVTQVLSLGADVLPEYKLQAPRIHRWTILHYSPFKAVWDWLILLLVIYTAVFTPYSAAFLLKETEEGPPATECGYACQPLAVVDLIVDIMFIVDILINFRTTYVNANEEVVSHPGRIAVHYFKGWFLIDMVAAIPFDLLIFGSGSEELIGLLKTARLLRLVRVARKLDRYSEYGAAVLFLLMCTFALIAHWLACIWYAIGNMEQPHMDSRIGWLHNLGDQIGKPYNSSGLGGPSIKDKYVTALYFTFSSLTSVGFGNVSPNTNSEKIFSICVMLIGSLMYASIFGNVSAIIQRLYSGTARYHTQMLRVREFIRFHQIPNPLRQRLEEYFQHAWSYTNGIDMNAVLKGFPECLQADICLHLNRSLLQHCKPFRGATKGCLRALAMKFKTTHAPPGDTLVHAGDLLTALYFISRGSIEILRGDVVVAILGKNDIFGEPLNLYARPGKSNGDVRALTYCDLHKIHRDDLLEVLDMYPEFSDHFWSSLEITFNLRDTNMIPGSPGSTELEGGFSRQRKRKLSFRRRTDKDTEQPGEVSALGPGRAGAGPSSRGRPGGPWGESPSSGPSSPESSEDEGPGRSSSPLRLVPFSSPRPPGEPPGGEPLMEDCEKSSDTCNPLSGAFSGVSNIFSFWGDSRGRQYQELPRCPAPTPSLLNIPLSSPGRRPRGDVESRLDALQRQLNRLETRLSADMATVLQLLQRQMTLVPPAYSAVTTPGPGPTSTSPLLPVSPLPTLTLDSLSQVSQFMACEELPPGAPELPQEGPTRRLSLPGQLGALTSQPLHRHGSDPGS

Molecules are shown by their SMILES. Where two headings read alike, the source gives them in different places.

T2 sequence (O43497 whole entry): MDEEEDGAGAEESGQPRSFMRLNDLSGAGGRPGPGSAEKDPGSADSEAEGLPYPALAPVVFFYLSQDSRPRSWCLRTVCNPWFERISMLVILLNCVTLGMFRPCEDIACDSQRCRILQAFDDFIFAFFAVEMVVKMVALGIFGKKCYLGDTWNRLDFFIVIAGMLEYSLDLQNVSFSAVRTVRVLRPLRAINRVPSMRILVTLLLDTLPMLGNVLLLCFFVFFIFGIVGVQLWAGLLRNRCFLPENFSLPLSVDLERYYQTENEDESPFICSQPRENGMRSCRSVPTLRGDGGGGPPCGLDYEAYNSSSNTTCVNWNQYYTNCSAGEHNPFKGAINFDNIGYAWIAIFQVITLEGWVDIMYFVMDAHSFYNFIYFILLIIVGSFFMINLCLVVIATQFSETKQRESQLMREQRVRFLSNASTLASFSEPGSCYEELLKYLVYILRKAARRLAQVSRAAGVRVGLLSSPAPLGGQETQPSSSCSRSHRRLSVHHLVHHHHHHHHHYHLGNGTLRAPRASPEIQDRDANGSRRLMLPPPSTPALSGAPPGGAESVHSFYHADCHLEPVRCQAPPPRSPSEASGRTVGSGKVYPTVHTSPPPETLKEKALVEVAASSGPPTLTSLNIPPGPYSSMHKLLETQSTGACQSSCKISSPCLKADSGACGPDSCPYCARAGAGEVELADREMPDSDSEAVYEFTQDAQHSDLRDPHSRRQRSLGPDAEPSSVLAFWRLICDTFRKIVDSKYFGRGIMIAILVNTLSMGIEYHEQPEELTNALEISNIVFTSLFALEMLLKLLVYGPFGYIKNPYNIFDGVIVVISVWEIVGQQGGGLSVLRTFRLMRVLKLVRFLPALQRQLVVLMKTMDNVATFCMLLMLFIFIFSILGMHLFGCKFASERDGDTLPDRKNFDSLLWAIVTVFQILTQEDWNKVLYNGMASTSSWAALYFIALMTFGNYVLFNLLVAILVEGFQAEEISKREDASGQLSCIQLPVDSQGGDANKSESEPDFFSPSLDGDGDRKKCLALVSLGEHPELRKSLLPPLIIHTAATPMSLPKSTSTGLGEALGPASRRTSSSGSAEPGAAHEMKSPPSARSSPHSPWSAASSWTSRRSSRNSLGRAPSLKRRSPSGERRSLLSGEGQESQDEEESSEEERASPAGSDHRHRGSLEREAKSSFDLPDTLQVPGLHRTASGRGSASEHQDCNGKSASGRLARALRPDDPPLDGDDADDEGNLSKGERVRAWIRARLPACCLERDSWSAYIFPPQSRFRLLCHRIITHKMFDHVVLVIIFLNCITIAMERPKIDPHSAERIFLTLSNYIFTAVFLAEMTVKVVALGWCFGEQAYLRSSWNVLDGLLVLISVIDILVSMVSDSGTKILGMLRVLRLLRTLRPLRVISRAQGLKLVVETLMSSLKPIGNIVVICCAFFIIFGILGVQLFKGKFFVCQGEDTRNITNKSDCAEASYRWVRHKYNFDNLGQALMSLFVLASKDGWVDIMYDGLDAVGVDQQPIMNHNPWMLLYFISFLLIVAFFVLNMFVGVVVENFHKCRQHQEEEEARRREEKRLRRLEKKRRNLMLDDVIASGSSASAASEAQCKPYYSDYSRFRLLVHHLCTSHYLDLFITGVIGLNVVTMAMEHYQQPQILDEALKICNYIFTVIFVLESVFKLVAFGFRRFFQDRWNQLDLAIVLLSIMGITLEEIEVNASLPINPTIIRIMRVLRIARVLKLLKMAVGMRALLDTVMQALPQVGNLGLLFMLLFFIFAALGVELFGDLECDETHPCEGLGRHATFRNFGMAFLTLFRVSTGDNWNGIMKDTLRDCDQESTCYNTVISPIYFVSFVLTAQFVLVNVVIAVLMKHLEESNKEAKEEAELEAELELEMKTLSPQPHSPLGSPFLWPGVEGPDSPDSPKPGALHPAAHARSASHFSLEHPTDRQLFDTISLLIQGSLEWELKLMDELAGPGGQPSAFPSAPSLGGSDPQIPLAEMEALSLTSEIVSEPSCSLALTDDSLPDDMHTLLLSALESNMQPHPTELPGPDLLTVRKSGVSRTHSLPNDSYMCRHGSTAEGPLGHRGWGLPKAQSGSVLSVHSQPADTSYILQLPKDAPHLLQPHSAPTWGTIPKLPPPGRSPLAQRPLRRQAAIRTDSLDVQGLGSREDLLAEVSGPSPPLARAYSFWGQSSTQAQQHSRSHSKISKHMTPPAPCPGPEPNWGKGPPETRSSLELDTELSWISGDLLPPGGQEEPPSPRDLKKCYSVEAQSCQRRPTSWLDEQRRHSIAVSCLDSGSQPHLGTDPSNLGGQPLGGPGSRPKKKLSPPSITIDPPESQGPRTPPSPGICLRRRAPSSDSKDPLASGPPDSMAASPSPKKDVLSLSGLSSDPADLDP

For the compound `CC(C)(C(=O)NCCN1CCC(CNC(=O)c2cccc(C(F)(F)F)c2)CC1)C(F)(F)F` [Compound 492, N-((1-(2-(3,3,3-trifluoro-2,2-dimethylpropanamido)ethyl)piperidin-4-yl)methyl)-3-(trifluoromethyl)benzamide], the half-maximal inhibitory concentration (IC50) (in general, the point on the concentration scale where inhibition reaches its midpoint) was 90 nM in data set [1], under 300 nM in data set [2] and 4700 nM in data set [3].

For `CC(C)(C)C(O)CN1CCC(CC(=O)Nc2cc(C(F)(F)F)cc(C(F)(F)F)c2)CC1` (stereo not drawn) [Compound 153, N-(3,5-bis(trifluoromethyl)phenyl)-2-(1-(2-hydroxy-3,3-dimethylbutyl)piperidin-4-yl)acetamide], the IC50 in data set [1] was 70 nM; in data set [2], under 300 nM; in data set [3], 2800 nM.

`CC(C)(NC(=O)CN1CCC(CNC(=O)c2cc(F)cc(Cl)c2)CC1)C(F)(F)F` [Compound 461, 3-chloro-5-fluoro-N-((1-(2-oxo-2-(1,1,1-trifluoro-2-methylpropan-2-ylamino)ethyl)piperidin-4-yl)methyl)benzamide]: the concentration for half-maximal inhibition (IC50) in data set [1] is 20 nM; in data set [2], under 300 nM; in data set [3], 7400 nM.

On to `O=C(NCC1CCN(CCNC(=O)C2(C(F)(F)F)CC2)CC1)c1cc(F)cc(Cl)c1` [Compound 472, 3-chloro-5-fluoro-N-((1-(2-(1-(trifluoromethyl)cyclopropanecarbox-amido)ethyl)piperidin-4-yl)methyl) benzamide], for which the IC50 in data set [1] was 40 nM; in data set [2], under 300 nM; in data set [3] it was 2800 nM.

On to `COc1cc(F)cc(C(=O)NCC2CCN(CCNC(=O)C3(C(F)(F)F)CCC3)CC2)c1` [Compound 513, 3-fluoro-5-methoxy-N-((1-(2-(1-(trifluoromethyl)cyclobutanecarboxamido)ethyl)piperidin-4-yl)methyl)benzamide], for which the half-inhibitory concentration (IC50) in data set [1] is 90 nM; in data set [2], under 300 nM; in data set [3] (human), at least 16600 nM.

For the compound `CC(C)(NC(=O)CN1CCC(CNC(=O)c2cccc(Cl)c2)CC1)C(F)(F)F` [Compound 460, 3-chloro-N-((1-(2-oxo-2-(1,1,1-trifluoro-2-methylpropan-2-ylamino)ethyl)piperidin-4-yl)methyl)benzamide], the IC50 in data set [1] is 30 nM; in data set [2], under 300 nM; in data set [3], 6900 nM.

Consider `CC1(C)COCCN1C(=O)CN1CCC(CNC(=O)c2cc(C(F)(F)F)cc(C(F)(F)F)c2)CC1` [Compound 578, N-((1-(2-(3,3-dimethylmorpholino)-2-oxoethyl)piperidin-4-yl)methyl)-3,5-bis(trifluoromethyl)benzamide], for which the half-inhibitory concentration (IC50) in data set [1] was 160 nM; in data set [2], under 300 nM; in data set [3], 5400 nM.

On to `COc1cc(F)cc(C(=O)NCC2CCN(CC(=O)N(C)C(C)(C)C(F)(F)F)CC2)c1` [Compound 581, 3-fluoro-5-methoxy-N-((1-(2-(methyl(1,1,1-trifluoro-2-methyl-propan-2-yl)amino)-2-oxoethyl)piperidin-4-yl)methyl)benzamide], for which the IC50 is 210 nM in data set [1], under 300 nM in data set [2] and 11000 nM in data set [3].

On to `CC(C)(NC(=O)CN1CCC(CNC(=O)c2cccc(OC(F)(F)F)c2)CC1)C(F)(F)F` [Compound 462, N-((1-(2-oxo-2-(1,1,1-trifluoro-2-methylpropan-2-ylamino)ethyl)piperidin-4-yl)methyl)-3-(trifluoromethoxy) benzamide], for which the IC50 in data set [1] was 30 nM; in data set [2], under 300 nM; in data set [3], 4100 nM.

With `O=C(NCC1CCN(CC(=O)N2CCC[C@H]2C(F)(F)F)CC1)c1cccc(Br)c1` [Compound 468, (S)-3-bromo-N-((1-(2-oxo-2-(2-(trifluoromethyl)pyrrolidin-1-yl)ethyl)piperidin-4-yl)methyl)benzamide], the figures for the 50% inhibitory concentration (IC50) in data set [1], in data set [2] and in data set [3] were 90 nM, under 300 nM and 4200 nM, respectively.

For `CC1(NC(=O)CN2CCC(CNC(=O)c3cc(F)cc(Cl)c3)CC2)CCC1` [Compound 482, 3-chloro-5-fluoro-N-((1-(2-(1-methylcyclobutylamino)-2-oxoethyl)piperidin-4-yl)methyl) benzamide], the half-inhibitory concentration (IC50) in data set [1] is 80 nM; in data set [2], under 300 nM; in data set [3], 7900 nM.

Consider `CC(C)(C)S(=O)(=O)NCCN1CCC(CNC(=O)c2cccc(OC(F)(F)F)c2)CC1` [Compound 574, N-((1-(2-(1,1-dimetylethylsulfonamido)ethyl)piperidin-4-yl)methyl)-3-(trifluoromethoxy)benzamide], for which the half-maximal inhibitory concentration (IC50) in data set [1] was 200 nM; in data set [2], under 300 nM; in data set [3], 4100 nM.

Consider `CN(C(=O)CN1CCC(CNC(=O)c2cccc(OC(F)(F)F)c2)CC1)C(C)(C)C` [Compound 545, N-((1-(2-(tert-butyl(methyl)amino)-2-oxoethyl)piperidin-4-yl)methyl)-3-(trifluoromethoxy)benzamide], for which the values for the IC50 in data set [1], in data set [2] and in data set [3] were 210 nM, 470 nM and 6600 nM, respectively.

For `COc1cc(Cl)cc(C(=O)NCC2CCN(CCNC(=O)C3(C(F)(F)F)CC3)CC2)c1` [Compound 590, 3-chloro-5-methoxy-N-((1-(2-(1-(trifluoromethyl)cyclopropanecarbox-amido)ethyl)piperidin-4-yl)methyl) benzamide], the 50% inhibitory concentration (IC50) in data set [1] was 70 nM; in data set [2], under 300 nM; in data set [3], 2200 nM.

For `O=C(CN1CCC(CNC(=O)c2cc(F)cc(Cl)c2)CC1)NC1CCCC1` [Compound 531, 3-chloro-N-((1-(2-(cyclopentylamino)-2-oxoethyl)piperidin-4-yl)methyl)-5-fluorobenzamide], the IC50 is 80 nM in data set [1], under 300 nM in data set [2] and 2400 nM in data set [3].

Consider `O=C(CC1CCN(CC(O)C(F)(F)F)CC1)Nc1cc(C(F)(F)F)cc(C(F)(F)F)c1` (stereo not drawn) [Compound 178, N-(3,5-bis(trifluoromethyl)phenyl)-2-(1-(3,3,3-trifluoro-2-hydroxypropyl)piperidin-4-yl)acetamide], for which the IC50 in data set [1] amounted to 5100 nM; in data set [2], 720 nM; in data set [3] it was 1600 nM.

For `O=C(NCC1CCN(CCNC(=O)C2(C(F)(F)F)CC2)CC1)c1cc(F)cc(C(F)(F)F)c1` [Compound 343, 3-fluoro-5-(trifluoromethyl)-N-((1-(2-(1-(trifluoromethyl)cyclopropanecarbox-amido)ethyl)piperidin-4-yl)methyl) benzamide], the 50% inhibitory concentration (IC50) in data set [1] was 130 nM; in data set [2] it was 330 nM; in data set [3], 6200 nM.

Consider `O=C(NCC1CCN(CC(=O)N2CCC[C@H]2C(F)(F)F)CC1)c1cccc(Cl)c1` [Compound 469, (S)-3-chloro-N-((1-(2-oxo-2-(2-(trifluoromethyl)pyrrolidin-1-yl)ethyl)piperidin-4-yl)methyl)benzamide], for which the values for the concentration for half-maximal inhibition (IC50) in data set [1], in data set [2] and in data set [3] were 120 nM, under 300 nM and 9500 nM, respectively.

Consider `CC(C)(C(=O)NCCN1CCC(CNC(=O)c2cccc(Br)c2)CC1)C(F)(F)F` [Compound 493, 3-bromo-N-((1-(2-(3,3,3-trifluoro-2,2-dimethylpropanamido)ethyl)piperidin-4-yl)methyl)benzamide], for which the IC50 in data set [1] was 60 nM; in data set [2] it was under 300 nM; in data set [3] it was 2500 nM.

On to `O=C(CC1CCN(CC2(NS(=O)(=O)C3CC3)CCCC2)CC1)Nc1cc(C(F)(F)F)cc(C(F)(F)F)c1` [Compound 179, N-(3,5-bis(trifluoromethyl)phenyl)-2-(1-((1-(cyclopropanesulfonamido)cyclopentyl)methyl)piperidin-4-yl) acetamide], for which the concentration for half-maximal inhibition (IC50) worked out at 80 nM in data set [1], 2 nM in data set [2] and 330 nM in data set [3].

In the case of `CC(C)(C)NC(=O)CN1CCC(CNC(=O)c2cccc(Br)c2)CC1` [Compound 374, 3-bromo-N-((1-(2-(tert-butylamino)-2-oxoethyl)piperidin-4-yl)methyl) benzamide], the half-inhibitory concentration (IC50) in data set [1] was 90 nM; in data set [2], under 300 nM; in data set [3], 7800 nM.

For the compound `CC(C)(C(=O)NCCN1CCC(CNC(=O)c2cc(F)cc(Cl)c2)CC1)C(F)(F)F` [Compound 495, 3-chloro-5-fluoro-N-((1-(2-(3,3,3-trifluoro-2,2-dimethylpropanamido)ethyl)piperidin-4-yl)methyl)benzamide], the IC50 is 90 nM in data set [1], under 300 nM in data set [2] and 4100 nM in data set [3].

Turning to `CC(C)NC(=O)CN1CCC(CNC(=O)c2cc(C(F)(F)F)cc(C(F)(F)F)c2)CC1` [Compound 344, N-((1-(2-(isopropylamino)-2-oxoethyl)piperidin-4-yl)methyl)-3,5-bis(trifluoromethyl)benzamide], the concentration for half-maximal inhibition (IC50) in data set [1] was 120 nM; in data set [2] it was under 300 nM; in data set [3], 9100 nM.

As for `CC(C)(C)NC(=O)CN1CCC(CNC(=O)c2cc(F)cc(C(F)(F)F)c2)CC1` [Compound 376, N-((1-(2-(tert-butylamino)-2-oxoethyl)piperidin-4-yl)methyl)-3-fluoro-5-(trifluoromethyl)benzamide], the IC50 in data set [1] is 160 nM; in data set [2], under 300 nM; in data set [3], 11000 nM.

Regarding `COc1cc(F)cc(C(=O)NCC2CCN(CCNC(=O)C3(C(F)(F)F)CC3)CC2)c1` [Compound 499, 3-fluoro-5-methoxy-N-((1-(2-(1-(trifluoromethyl)cyclopropanecarbox-amido)ethyl)piperidin-4-yl)methyl) benzamide], the results for the IC50 in data set [1], in data set [2] and in data set [3] were 140 nM, under 300 nM and 11100 nM, respectively.
